# Numbered stars: 1 amine (or outer) side, 2 acyl side, 3 side chain; on linkers, the order of the positions; unused ones are H or OH. Bridge positions count the residues as written; N and C are the ends. Square brackets hold non-standard residues; d marks the D form. Peptide text beside a SMILES is read from it. I, II: the chains in the order shown. Actinocin(9to1) = Cc1c2oc3c(C)ccc(C(=O)[*:1])c3nc-2c(C(=O)[*:2])c(N)c1=O; NMeV = CN[C@H](C(=O)O)C(C)C; Sar = CNCC(=O)O
# Assays:
# ABCG2 (BCRP) = test: Growth inhibition; format: cell-based, canine; details: dog, MDCKII cells transfected with human ABCG2 (BCRP)
# MDCKII-ABCG2 cells [1] = test: Growth inhibition; format: cell-based, canine; details: MDCKII-ABCG2, Act D alone or with KO143, p = 0.74
# MDCKII-ABCC2 cells = test: Intracellular accumulation of Act D; format: in vitro ADME, canine
# MDCKII-ABCG2 cells [2] = test: Intracellular accumulation of Act D; format: in vitro ADME, canine
smiles,measurement,setting,value
"Cc1c2oc3c(C)ccc(C(=O)N[C@@H]4C(=O)N[C@H](C(C)C)C(=O)N5CCC[C@H]5C(=O)N(C)CC(=O)N(C)[C@@H](C(C)C)C(=O)O[C@@H]4C)c3nc-2c(C(=O)N[C@@H]2C(=O)N[C@H](C(C)C)C(=O)N3CCC[C@H]3C(=O)N(C)CC(=O)N(C)[C@@H](C(C)C)C(=O)O[C@@H]2C)c(N)c1=O [Act D, actinomycin D] (I: T[dV]P[Sar][NMeV] / II: T[dV]P[Sar][NMeV]; ester I:1-I:C, II:1-II:C; linker I:N-II:N via Actinocin(9to1))",GI50 at 72 h,ABCG2 (BCRP),14 nM
same,difference in sensitivity vs parental cell line,MDCKII-ABCG2 cells [1],No difference in sensitivity
same,increased accumulation with MK571 compared to absence of inhibitor,"MDCKII-ABCC2 cells; MDCKII-ABCC2, not statistically significant",1.4 fold
same,lower accumulation of Act D compared to parental cell line,"MDCKII-ABCC2 cells; MDCKII-ABCC2 vs MDCKII-WT, 12 h",3.5 fold
same,Act D accumulation compared to WT cells,MDCKII-ABCG2 cells [2]; MDCKII-ABCG2,not different to WT cells
same,effect of co-incubation with KO143 on Act D accumulation,"MDCKII-ABCG2 cells [2]; MDCKII-ABCG2, data not shown",no effect

# Reference: publication PMC3545186 (Biochemical Pharmacology, 2013)
